# Source: patent publication US4992439A, “Pyridazine carboxylic acids and esters” (Bristol-Myers Squibb Company, priority 1990, dated 1991)
# System: human platelet aggregation (ADP-induced)
# Format: cell-based
# Settings: human platelet rich plasma; ADP final concentration 0.5 mcg/mL; compounds in DMSO; read-out: Inhibition of Human Platelet Aggregation, IC50 vs. ADP
row,IC50 [µg/mL],SMILES
1,21,"COC(=O)CCCCCCCCn1nc(-c2ccccc2)c(-c2ccccc2)cc1=O [Example 1, Methyl 6-oxo-3,4-diphenyl-1(6H)-pyridazinenonanoate]"
2,2.9,"O=C(O)CCCCCCCCn1nc(-c2ccccc2)c(-c2ccccc2)cc1=O [Example 2, 6-Oxo-3,4-diphenyl-1(6H)-pyridazinenonanoic acid]"
3,7.7,"COC(=O)CCCCCCCn1nc(-c2ccccc2)c(-c2ccccc2)cc1=O [Example 3, Methyl 6-Oxo-3,4-diphenyl-1(6H)pyridazinyloctanoate]"
4,1.6,"O=C(O)CCCCCCCn1nc(-c2ccccc2)c(-c2ccccc2)cc1=O [Example 4, 6-Oxo-3,4-diphenyl-1(6H)-pyridazinyloctanoic Acid]"
5,0.75,"COC(=O)COc1cccc(CCn2nc(-c3ccccc3)c(-c3ccccc3)cc2=O)c1 [Example 5, Methyl [3-[2-(1,6-dihydro-6-oxo-3,4-diphenyl-1-pyridazinyl)ethyl]phenoxy]acetate]"
6,1,"O=C(O)COc1cccc(CCn2nc(-c3ccccc3)c(-c3ccccc3)cc2=O)c1 [Example 6, [3-[2-(1,6-Dihydro-6-oxo-3,4-diphenyl-1-pyridazinyl)ethyl]phenoxy]acetic Acid]"
